Measured values reported in PubChem BioAssay AID248 (DTP/NCI, 2004).
Values joined by “and” are separate entries in the source; they are usually repeats but may differ in a detail not shown here. Identical values can stand only once. Inconclusive results and toxic doses are left out. No stated cut-off is given here; in the data, active means T/C of 150% or more; inactive means T/C below 125%.

Test system: L1210 leukemia ip in BDF1 mice, survival T/C
Test: NCI In Vivo Anticancer Drug Screen. Data for tumor model L1210 Leukemia (intraperitoneal) in B6D2F1 (BDF1) mice
Details: endpoint: mean survival time, higher = longer survival
Outline: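 Transplanted-tumor mice were given test agent; controls received vehicle only. Survival readings from the two groups were divided (treated over control).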

Measured: T/C

CC(=O)OCC1OC(n2ncc(=O)[nH]c2=O)C(OC(C)=O)C1OC(C)=O (stereo not given)
active: dose: 62.0 mg/kg/injection, schedule: Q01DX Z (oral), vehicle: carboxymethylcellulose (CMC) 157 % of control | dose: 166.66 mg/kg/injection, schedule: Q#B X Z (ip), vehicle: carboxymethylcellulose (CMC) 157 % of control | dose: 250.0 mg/kg/injection, schedule: Q01DX Z (im), vehicle: carboxymethylcellulose (CMC) 161 % of control | dose: 280.0 mg/kg/injection, schedule: Q01DX Z (sc), vehicle: carboxymethylcellulose (CMC) 151 % of control | dose: 500.0 mg/kg/injection, schedule: Q01DX Z (im), vehicle: carboxymethylcellulose (CMC) 150 % of control | dose: 500.0 mg/kg/injection, schedule: Q01DX Z (sc), vehicle: carboxymethylcellulose (CMC) 154 % of control | dose: 512.0 mg/kg/injection, schedule: Q01DX009 (oral), vehicle: other 151 % of control | dose: 1000.0 mg/kg/injection, schedule: Q01DX Z (im), vehicle: carboxymethylcellulose (CMC) 158 % of control
inactive: dose: 5.3 mg/kg/injection, schedule: Q01DX Z (oral), vehicle: carboxymethylcellulose (CMC) 122 % of control | dose: 8.0 mg/kg/injection, schedule: Q01DX Z (oral), vehicle: carboxymethylcellulose (CMC) 119 % of control | dose: 8.0 mg/kg/injection, schedule: Q03HX024 (ip), vehicle: other 104 % of control | dose: 8.0 mg/kg/injection, schedule: Q03HX024 (oral), vehicle: other 117 % of control | dose: 8.8 mg/kg/injection, schedule: Q01DX Z (ip), vehicle: carboxymethylcellulose (CMC) 114 % of control | dose: 10.0 mg/kg/injection, schedule: Q01DX Z (im), vehicle: carboxymethylcellulose (CMC) 121 % of control | dose: 11.66 mg/kg/injection, schedule: Q#B X Z (ip), vehicle: carboxymethylcellulose (CMC) 111 % of control | dose: 13.0 mg/kg/injection, schedule: Q01DX Z (ip), vehicle: carboxymethylcellulose (CMC) 118 % of control | dose: 15.0 mg/kg/injection, schedule: Q01DX Z (im), vehicle: carboxymethylcellulose (CMC) 122 % of control | dose: 15.0 mg/kg/injection, schedule: Q01DX Z (sc), vehicle: carboxymethylcellulose (CMC) 116 % of control | dose: 16.0 mg/kg/injection, schedule: Q03HX008 (ip), vehicle: other 103 % of control | dose: 16.0 mg/kg/injection, schedule: Q03HX016 (ip), vehicle: other 105 % of control | dose: 18.33 mg/kg/injection, schedule: Q#B X Z (ip), vehicle: carboxymethylcellulose (CMC) 113 % of control | dose: 20.0 mg/kg/injection, schedule: Q01DX Z (ip), vehicle: carboxymethylcellulose (CMC) 120 % of control | dose: 23.0 mg/kg/injection, schedule: Q01DX Z (im), vehicle: carboxymethylcellulose (CMC) 121 % of control | dose: 26.66 mg/kg/injection, schedule: Q#B X Z (ip), vehicle: carboxymethylcellulose (CMC) 116 % of control | dose: 31.0 mg/kg/injection, schedule: Q01DX Z (ip), vehicle: carboxymethylcellulose (CMC) 120 % of control | dose: 32.0 mg/kg/injection, schedule: Q03HX008 (ip), vehicle: other 102 % of control | dose: 32.0 mg/kg/injection, schedule: Q03HX016 (ip), vehicle: other 103 % of control | dose: 32.0 mg/kg/injection, schedule: Q03HX024 (ip), vehicle: other 118 % of control | dose: 32.0 mg/kg/injection, schedule: Q03HX024 (oral), vehicle: other 122 % of control | dose: 61.66 mg/kg/injection, schedule: Q#B X Z (ip), vehicle: carboxymethylcellulose (CMC) 120 % of control | dose: 64.0 mg/kg/injection, schedule: Q03HX008 (ip), vehicle: other 108 % of control | dose: 64.0 mg/kg/injection, schedule: Q03HX016 (ip), vehicle: other 103 % of control | dose: 64.0 mg/kg/injection, schedule: Q04DX003 (ip), vehicle: other 103 % of control | dose: 64.0 mg/kg/injection, schedule: Q04DX003 (oral), vehicle: other 109 % of control | dose: 85.0 mg/kg/injection, schedule: Q01DX Z (im), vehicle: carboxymethylcellulose (CMC) 122 % of control | dose: 93.33 mg/kg/injection, schedule: Q#B X Z (ip), vehicle: carboxymethylcellulose (CMC) 124 % of control and 86 % of control | dose: 125.0 mg/kg/injection, schedule: Q01DX001 (ip), vehicle: carboxymethylcellulose (CMC) 102 % of control and 107 % of control | dose: 125.0 mg/kg/injection, schedule: Q01DX006 (iv), vehicle: carboxymethylcellulose (CMC) 118 % of control | dose: 125.0 mg/kg/injection, schedule: Q03DX Z (ip), vehicle: carboxymethylcellulose (CMC) 121 % of control | dose: 125.0 mg/kg/injection, schedule: Q07DX Z (ip), vehicle: carboxymethylcellulose (CMC) 110 % of control | dose: 128.0 mg/kg/injection, schedule: Q01DX001 (ip), vehicle: other 105 % of control | dose: 128.0 mg/kg/injection, schedule: Q03HX008 (ip), vehicle: other 109 % of control | dose: 128.0 mg/kg/injection, schedule: Q03HX016 (ip), vehicle: other 119 % of control | dose: 128.0 mg/kg/injection, schedule: Q04DX003 (ip), vehicle: other 110 % of control | dose: 128.0 mg/kg/injection, schedule: Q04DX003 (oral), vehicle: other 101 % of control | dose: 128.0 mg/kg/injection, schedule: Q08DX002 (ip), vehicle: other 101 % of control | dose: 185.0 mg/kg/injection, schedule: Q01DX Z (sc), vehicle: carboxymethylcellulose (CMC) 121 % of control | dose: 250.0 mg/kg/injection, schedule: Q01DX001 (ip), vehicle: carboxymethylcellulose (CMC) 100 % of control and 103 % of control | dose: 250.0 mg/kg/injection, schedule: Q03DX Z (ip), vehicle: carboxymethylcellulose (CMC) 122 % of control | dose: 250.0 mg/kg/injection, schedule: Q07DX Z (ip), vehicle: carboxymethylcellulose (CMC) 115 % of control | dose: 256.0 mg/kg/injection, schedule: Q01DX001 (ip), vehicle: other 97 % of control | dose: 256.0 mg/kg/injection, schedule: Q04DX003 (ip), vehicle: other 106 % of control | dose: 256.0 mg/kg/injection, schedule: Q04DX003 (oral), vehicle: other 120 % of control | dose: 256.0 mg/kg/injection, schedule: Q08DX002 (ip), vehicle: other 96 % of control | dose: 420.0 mg/kg/injection, schedule: Q01DX Z (sc), vehicle: carboxymethylcellulose (CMC) 108 % of control | dose: 450.0 mg/kg/injection, schedule: Q01DX010 (ip), vehicle: saline 116 % of control | dose: 500.0 mg/kg/injection, schedule: Q01DX001 (ip), vehicle: carboxymethylcellulose (CMC) 102 % of control and 113 % of control | dose: 500.0 mg/kg/injection, schedule: Q03DX Z (ip), vehicle: carboxymethylcellulose (CMC) 121 % of control | dose: 500.0 mg/kg/injection, schedule: Q07DX Z (ip), vehicle: carboxymethylcellulose (CMC) 113 % of control | dose: 512.0 mg/kg/injection, schedule: Q01DX001 (ip), vehicle: other 104 % of control | dose: 512.0 mg/kg/injection, schedule: Q04DX003 (ip), vehicle: other 106 % of control | dose: 512.0 mg/kg/injection, schedule: Q08DX002 (ip), vehicle: other 105 % of control | dose: 675.0 mg/kg/injection, schedule: Q01DX010 (ip), vehicle: saline 93 % of control | dose: 1000.0 mg/kg/injection, schedule: Q01DX001 (ip), vehicle: carboxymethylcellulose (CMC) 97 % of control and 122 % of control | dose: 1000.0 mg/kg/injection, schedule: Q01DX Z (ip), vehicle: carboxymethylcellulose (CMC) 102 % of control | dose: 1000.0 mg/kg/injection, schedule: Q01DX Z (oral), vehicle: carboxymethylcellulose (CMC) 86 % of control | dose: 1000.0 mg/kg/injection, schedule: Q01DX Z (sc), vehicle: carboxymethylcellulose (CMC) 117 % of control | dose: 1000.0 mg/kg/injection, schedule: Q07DX Z (ip), vehicle: carboxymethylcellulose (CMC) 113 % of control | dose: 1014.0 mg/kg/injection, schedule: Q01DX010 (ip), vehicle: saline 100 % of control | dose: 1024.0 mg/kg/injection, schedule: Q01DX001 (ip), vehicle: other 101 % of control | dose: 1024.0 mg/kg/injection, schedule: Q08DX002 (ip), vehicle: other 106 % of control

O=C(Nc1cc(C(F)(F)F)ccc1Cl)c1cccc(C(=O)Nc2cc(C(F)(F)F)ccc2Cl)c1
inactive: dose: 12.5 mg/kg/injection, schedule: Q04DX003 (ip), vehicle: saline with Tween-80 93 % of control | dose: 25.0 mg/kg/injection, schedule: Q04DX003 (ip), vehicle: saline with Tween-80 96 % of control | dose: 50.0 mg/kg/injection, schedule: Q04DX003 (ip), vehicle: saline with Tween-80 95 % of control | dose: 200.0 mg/kg/injection, schedule: Q04DX003 (ip), vehicle: saline with Tween-80 87 % of control

Cc1cccc(C)c1SSc1c(C)cccc1C
inactive: dose: 50.0 mg/kg/injection, schedule: Q04DX002 (ip), vehicle: other 96 % of control | dose: 100.0 mg/kg/injection, schedule: Q04DX002 (ip), vehicle: other 108 % of control | dose: 200.0 mg/kg/injection, schedule: Q04DX002 (ip), vehicle: other 101 % of control

O=[N+]([O-])C(=C\c1ccccc1)/C(=C(/Br)[N+](=O)[O-])c1ccccc1
inactive: dose: 75.0 mg/kg/injection, schedule: Q01DX001 (ip), vehicle: saline 95 % of control | dose: 150.0 mg/kg/injection, schedule: Q01DX001 (ip), vehicle: saline 92 % of control
